Experimental data reported in patent US8669347B2, “Truncated variant of the mammalian target for rapamycin (MTOR) protein” (UCL Business PLC, priority 2007, dated 2014).

Tested on: Hek293 stable cell lines
Assay: Cell proliferation assay (Resazurin based) of Hek293 stable cell lines
Parameters: species or system human
Conditions: overexpressing stable lines grown 7 days, six independent studies
Description: Hek293 stable cell lines, over-expressing mTORβ wt, mTORα wt or EGFP were seeded into a 96 well plate at various densities (250, 500, 1000 and 2000 cells per well) and grown under standard conditions for 7 days. Cell numbers were than measured in each well by a Resosurin based assay. Normalized growth curves for each cell line were calculated using data from six independent experiments (A). Western blot analysis of total cell lysates of stable cell lines with antibodies to c-myc and its transcription targets (B). The level of proteins was densitometrically measured, actin normalized and folds were calculated against EGFP expressing stable cell line (C).
HEK293 stable cell lines, overexpressing mTORβ wt, mTORβ kinase-dead or EGFP were seeded into 96 well plate at various densities (1000, 2000, 4000 and 8000 cells per well) and grown under standard conditions for 5 days. Cell numbers were then measured in each well by Resazurin based assay. Normalized growth curves for each cell line were calculated using data from six independent experiments (A). Western blot analysis of total cell lysates of stable cell lines with antibodies to c-myc and its transcription targets. The level of proteins was densitometrically measured, actin normalized and folds were calculated against EGFP expressing stable cell line (B). […]

Substance: mTORα wt: full-length mammalian target for rapamycin protein, approximately 2549 amino acids (SEQ ID NO: 4)
- proliferation compared to control (EGFP) cells: no difference in proliferation
